{
  "source": "patent US20250248970A1",
  "about": "“NOVEL SUBSTITUTED FLUORINATED N-PROPYL-PYRROLIDINE COMPOUNDS, PROCESSES FOR THEIR PREPARATION AND THERAPEUTIC USES THEREOF” (SANOFI, priority 2022, published 2025)",
  "data": [
    {"biological_target": "T1, ERα (Homo sapiens, UniProt P03372)", "T1 construct": "host or cells: MCF7", "T1 sequence (P03372 1-595)": "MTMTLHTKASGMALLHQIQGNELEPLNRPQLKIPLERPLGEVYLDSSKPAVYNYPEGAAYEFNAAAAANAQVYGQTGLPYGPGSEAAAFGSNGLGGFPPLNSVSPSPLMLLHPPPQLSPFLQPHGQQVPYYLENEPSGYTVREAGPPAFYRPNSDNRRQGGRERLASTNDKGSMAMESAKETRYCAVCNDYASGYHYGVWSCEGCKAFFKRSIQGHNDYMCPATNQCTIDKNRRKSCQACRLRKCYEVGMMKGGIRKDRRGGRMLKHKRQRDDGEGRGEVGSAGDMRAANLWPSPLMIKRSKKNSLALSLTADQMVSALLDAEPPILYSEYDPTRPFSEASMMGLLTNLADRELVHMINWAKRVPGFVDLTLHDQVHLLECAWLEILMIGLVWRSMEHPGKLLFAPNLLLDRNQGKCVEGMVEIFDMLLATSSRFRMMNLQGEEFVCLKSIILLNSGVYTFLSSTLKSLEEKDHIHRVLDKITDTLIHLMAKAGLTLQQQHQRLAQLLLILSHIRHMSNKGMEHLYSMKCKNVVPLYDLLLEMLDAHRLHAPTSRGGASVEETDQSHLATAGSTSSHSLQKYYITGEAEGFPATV", "test": "Estrogen receptor degradation activity (breast cancer cell ERα in cell western assay)", "type": "cell-based", "conditions": "MCF7 cells, 0.3 μM, 4 hours, % of ERα levels decrease relative to fulvestrant", "procedure": "Said test involves measuring the in vitro degradation activity of the compounds of the Table 1a.\nThe measurements of the degradation activities were made using a breast cancer cell ERα in cell western assay as described hereunder.\nMCF7 cells (ATCC) were seeded in 384 wells microplate (collagen coated) at a concentration of 10000 cells/30 μL per well in red phenol free MEM alpha medium (invitrogen) containing 5% charcoal dextran striped FBS. The following day, 9 points serial 1:5 dilution of each compound was added to the cells in 2.5p L at final concentrations ranging from 0.3-0.0000018 μM (in table 2), or 0.1 μM for fulvestrant (using as positive control). At 4 hours post compound addition the cells were fixed by adding 25 μL of formalin (final concentration 5% formalin containing 0.1% triton) for 10 minutes at room temperature and then washed twice with PBS. Then, 50 μL of LI-COR blocking buffer containing 0.1% Triton was added to plate for 30 minutes at room temperature. LI-COR blocking buffer was removed and cells were incubated overnight at cold room with 50 μL anti-ER rabbit monoclonal antibody (Thermo scientific MA1-39540) diluted at 1:1000 in LI-COR blocking buffer containing 0.1% tween-20. Wells which were treated with blocking buffer but no antibody were used as background control. Wells were washed twice with PBS (0.1% tween-20) and incubated at 37° C. for 60 minutes in LI-COR (0.1% tween-20) containing goat anti-rabbit antibody Alexa 488 (1:1000) and Syto-64 a DNA dye (2 μM final concentration). Cells were then washed 3 times in PBS and scanned in ACUMEN explorer (TTP-Labtech). Integrated intensities in the green fluorescence and red fluorescence were measured to determine the levels of ERα and DNA respectively.\nThe degradation activity with respect to estrogen receptors in this test is given by the concentration which degrades 50% of the estrogen receptor (or IC50) in nM.\nThe % of ERα levels decrease were determined as follows: % inhibition=100*(1−(sample−fulvestrant: DMSO−fulvestrant)).", "units": {"% Degradation At 0.3 μM": "%"}, "values": [
      {"smiles": "Cc1cc(F)cc(C)c1C1=C(c2ccc(CC3CCN(CCCF)C3)cc2)c2ccc(C(=O)O)cc2CCC1.Cl", "note": "(single isomer, unassigned; isomer 1) [Compound 35, 8-(4-fluoro-2,6-dimethylphenyl)-9-(4-((1-(3-fluoropropyl)pyrrolidin-3-yl)methyl)phenyl)-6,7-dihydro-5H-benzo[7]annulene-3-carboxylic acid hydrochloride, Isomer 1]", "% Degradation At 0.3 μM": 84},
      {"smiles": "Cl.O=C(O)c1ccc2c(c1)OCCC(c1ccc(Cl)cc1Cl)=C2c1ccc(CC2CCN(CCCF)C2)cc1", "note": "(single isomer, unassigned; isomer 2) [Compound 8, 4-(2,4-dichlorophenyl)-5-(4-((1-(3-fluoropropyl)pyrrolidin-3-yl)methyl)phenyl)-2,3-dihydrobenzo[b]oxepine-8-carboxylic acid hydrochloride, Isomer 2]", "% Degradation At 0.3 μM": 63},
      {"smiles": "Cc1c(F)cccc1C1=C(c2ccc(CC3CCN(CCCF)C3)cc2)c2ccc(C(=O)O)cc2CCC1.Cl", "note": "(single isomer, unassigned; isomer 1) [Compound 20, 8-(3-fluoro-2-methylphenyl)-9-(4-((1-(3-fluoropropyl)pyrrolidin-3-yl)methyl)phenyl)-6,7-dihydro-5H-benzo[7]annulene-3-carboxylic acid hydrochloride, Isomer 1]", "% Degradation At 0.3 μM": 90},
      {"smiles": "Oc1ccc2c(c1)SCCC(c1ccccc1Cl)=C2c1ccc(CC2CCN(CCCF)C2)cc1", "note": "(single isomer, unassigned; isomer 1) [Compound 44, 4-(2-chlorophenyl)-5-(4-((1-(3-fluoropropyl)pyrrolidin-3-yl)methyl)phenyl)-2,3-dihydrobenzo[b]thiepin-8-ol, Isomer 1]", "% Degradation At 0.3 μM": 70},
      {"smiles": "Cc1cc(F)ccc1C1=C(c2ccc(CC3CCN(CCCF)C3)cc2)c2ccc(C(=O)O)cc2CCC1", "note": "(single isomer, unassigned; isomer 1) [Compound 17, 8-(4-fluoro-2-methylphenyl)-9-(4-((1-(3-fluoropropyl)pyrrolidin-3-yl)methyl)phenyl)-6,7-dihydro-5H-benzo[7]annulene-3-carboxylic acid, Isomer 1]", "% Degradation At 0.3 μM": 84},
      {"smiles": "O=C(O)c1ccc2c(c1)CCCC(c1ccc(F)cc1F)=C2c1ccc(CC2CCN(CCC(F)F)C2)cc1", "note": "(single isomer, unassigned; isomer 1) [Compound 10, 8-(2,4-difluorophenyl)-9-(4-((1-(3,3-difluoropropyl)pyrrolidin-3-yl)methyl)phenyl)-6,7-dihydro-5H-benzo[7]annulene-3-carboxylic acid, Isomer 1]", "% Degradation At 0.3 μM": 84},
      {"smiles": "Cc1cc(F)cc(C)c1C1=C(c2ccc(CC3CCN(CCC(F)F)C3)cc2)c2ccc(C(=O)O)cc2CCC1.Cl", "note": "(single isomer, unassigned; isomer 1) [Compound 32, 9-(4-((1-(3,3-difluoropropyl)pyrrolidin-3-yl)methyl)phenyl)-8-(4-fluoro-2,6-dimethylphenyl)-6,7-dihydro-5H-benzo[7]annulene-3-carboxylic acid hydrochloride, Isomer 1]", "% Degradation At 0.3 μM": 76},
      {"smiles": "O=C(O)c1ccc2c(c1)CCCC(c1ccc(Cl)cc1Cl)=C2c1ccc(C(F)(F)C2CCN(CCCF)C2)cc1", "note": "(single isomer, unassigned; isomer 1) [Compound 26, 8-(2,4-dichlorophenyl)-9-(4-(difluoro(1-(3-fluoropropyl)pyrrolidin-3-yl)methyl)phenyl)-6,7-dihydro-5H-benzo[7]annulene-3-carboxylic acid, Isomer 1]", "% Degradation At 0.3 μM": 84},
      {"smiles": "O=C(O)c1ccc2c(c1)CCCC(c1ccc(Cl)cc1Cl)=C2c1ccc(C[C@@H]2CCN(CCCF)C2)cc1", "note": "[Compound 24, 8-(2,4-dichlorophenyl)-9-(4-((1-(3-fluoropropyl)pyrrolidin-3-yl)methyl)phenyl)-6,7-dihydro-5H-benzo[7]annulene-3-carboxylic acid, (R) Isomer]", "% Degradation At 0.3 μM": 46},
      {"smiles": "Cl.Oc1ccc2c(c1)CCCC(c1ccc(Cl)cc1Cl)=C2c1ccc(CC2CCN(CCCF)C2)cc1", "note": "(single isomer, unassigned; isomer 1) [Compound 29, 8-(2,4-dichlorophenyl)-9-(4-((1-(3-fluoropropyl)pyrrolidin-3-yl)methyl)phenyl)-6,7-dihydro-5H-benzo[7]annulene-3-ol hydrochloride, Isomer 1]", "% Degradation At 0.3 μM": 76},
      {"smiles": "Cc1c(C2=C(c3ccc(CC4CCN(CCC(F)F)C4)cc3)c3ccc(C(=O)O)cc3CCC2)cccc1C(F)(F)F.Cl", "note": "(single isomer, unassigned; isomer 1) [Compound 28, 9-(4-((1-(3,3-difluoropropyl)pyrrolidin-3-yl)methyl)phenyl)-8-(2-methyl-3-(trifluoromethyl)phenyl)-6,7-dihydro-5H-benzo[7]annulene-3-carboxylic acid hydrochloride, Isomer 1]", "% Degradation At 0.3 μM": 78},
      {"smiles": "Cl.O=C(O)c1ccc2c(c1)CCCC(c1ccc(C(F)(F)F)cc1)=C2c1ccc(CC2CCN(CCCF)C2)cc1", "note": "(single isomer, unassigned; isomer 1) [Compound 38, 9-(4-((1-(3-fluoropropyl)pyrrolidin-3-yl)methyl)phenyl)-8-(4-(trifluoromethyl)phenyl)-6,7-dihydro-5H-benzo[7]annulene-3-carboxylic acid hydrochloride, Isomer 1]", "% Degradation At 0.3 μM": 92},
      {"smiles": "Cl.O=C(O)c1ccc2c(c1)CCCC(c1ccc(F)cc1Cl)=C2c1ccc(CC2CCN(CCC(F)F)C2)cc1", "note": "(single isomer, unassigned; isomer 1) [Compound 27, 8-(2-chloro-4-fluorophenyl)-9-(4-((1-(3,3-difluoropropyl)pyrrolidin-3-yl)methyl)phenyl)-6,7-dihydro-5H-benzo[7]annulene-3-carboxylic acid hydrochloride, Isomer 1]", "% Degradation At 0.3 μM": 73},
      {"smiles": "Cl.O=C(O)c1ccc2c(c1)CCCC(c1cccc(C(F)(F)F)c1)=C2c1ccc(CC2CCN(CCCF)C2)cc1", "note": "(single isomer, unassigned; isomer 1) [Compound 39, 9-(4-((1-(3-fluoropropyl)pyrrolidin-3-yl)methyl)phenyl)-8-(3-(trifluoromethyl)phenyl)-6,7-dihydro-5H-benzo[7]annulene-3-carboxylic acid hydrochloride, Isomer 1]", "% Degradation At 0.3 μM": 76},
      {"smiles": "Oc1ccc2c(c1)SCCC(c1ccc(Cl)cc1Cl)=C2c1ccc(CC2CCN(CCCF)C2)cc1", "note": "(single isomer, unassigned; isomer 1) [Compound 43, 4-(2,4-dichlorophenyl)-5-(4-((1-(3-fluoropropyl)pyrrolidin-3-yl)methyl)phenyl)-2,3-dihydrobenzo[b]thiepin-8-ol, Isomer 1]", "% Degradation At 0.3 μM": 80}
    ]}
  ]
}
